Legend:
3T3-L1 [1] = assay: Induction of adipogenesis in mouse 3T3L1 cells assessed as increase in triglyceride level at 3 uM on day 8 relative to control; assay type: functional
3T3-L1 [2] = assay: Induction of adipogenesis in mouse 3T3L1 cells assessed as increase in triglyceride level at 10 uM on day 8 relative to control; assay type: functional
3T3-L1 [3] = assay: Induction of adipogenesis in mouse 3T3L1 cells assessed as increase in triglyceride level at 1 uM on day 8 relative to control; assay type: functional
3T3-L1 [4] = assay: Induction of adipogenesis in mouse 3T3L1 cells assessed as increase in triglyceride level at 30 uM on day 8 relative to control; assay type: functional
3T3-L1 [5] = assay: Induction of adipogenesis in mouse 3T3L1 cells assessed as increase in triglyceride level at 0.3 uM on day 8 relative to control; assay type: functional
3T3-L1 [6] = assay: Cytotoxicity in mouse 3T3L1 cells assessed as reduction in triglyceride accumulation at 30 uM; assay type: cell-based; conditions: 3t3-l1, 30 µM
3T3-L1 [7] = assay: Induction of adiponectin protein secretion in mouse 3T3L1 cells at 3 uM on day 8 by ELISA relative to control; assay type: functional

Row | SMILES | Activity (3T3-L1 [1]) [%] | Activity (3T3-L1 [2]) [%] | Activity (3T3-L1 [3]) [%] | Activity (3T3-L1 [4]) [%] | Activity (3T3-L1 [5]) [%] | Activity (3T3-L1 [6]) | Activity (3T3-L1 [7]) [%]
1 | COc1cc(O)c2c(=O)c(OC)c(-c3ccccc3)oc2c1 | 13.7 | 14.2 | 13.3 | 17.7 | – | – | –
2 | O=c1cc(-c2ccc(O)c(O)c2)oc2ccccc12 | 13.8 | 9.8 | 5.9 | -21 | – | – | –
3 | O=c1cc(-c2ccc(O)cc2)oc2cc(O)ccc12 | -3.9 | -1.5 | -8.1 | -5.7 | – | – | –
4 | O=c1cc(-c2ccc(O)c(O)c2)oc2cc(O)ccc12 | 9 | 14.8 | 4.5 | -1.7 | – | – | –
5 | COc1ccc(-c2cc(=O)c3c(O)cc(OC)cc3o2)cc1 | 12.2 | 5.8 | 19 | 6.8 | 7.7 | – | –
6 | COc1ccc2c(c1)OC(c1ccc(O)cc1)CC2=O (stereo not given) | 2.2 | 2.6 | -1.2 | 13.5 | – | – | –
7 | COc1cc(OC)c2c(=O)c(OC)c(-c3ccccc3)oc2c1 | 10.4 | 13.2 | 9 | 6.6 | – | – | –
8 | COc1ccc(-c2cc(=O)c3ccc(OC)cc3o2)cc1 [4,7-DIMETHOXYFLAVONE] | 3.4 | 4.3 | 1.2 | 6.3 | – | – | –
9 | O=c1cc(-c2ccccc2)oc2cc(O)ccc12 [7-HYDROXYFLAVONE] | 13.7 | 17.1 | 12.2 | 5.3 | – | – | –
10 | Oc1cc(O)c2c(c1)O[C@H](c1ccc(O)c(O)c1)[C@H](O)C2 [(-)-EPICATECHIN] | 6.1 | -7.2 | 3.7 | -0.6 | – | – | –
11 | O=c1cc(-c2ccc(O)cc2)oc2cc(O)cc(O)c12 [APIGENIN] | 4.9 | 7 | 4.5 | -7.7 | – | – | –
12 | O=c1c(O[C@@H]2O[C@H](CO)[C@@H](O)[C@H](O)[C@H]2O)c(-c2ccc(O)cc2)oc2cc(O)cc(O)c12 [ASTRAGALIN] | 4.7 | 8.8 | 2.1 | 10.2 | – | – | –
13 | COc1cc(O)c2c(=O)c(OC)c(-c3ccc(OC)c(O)c3)oc2c1 [AYANIN] | 16.3 | 18.5 | 2.6 | 0.4 | – | – | –
14 | O=c1cc(-c2ccccc2)oc2cc(O)c(O)c(O)c12 [BAICALEIN] | -7.7 | -21.8 | -5.2 | -37.2 | – | Toxic | –
15 | COc1ccc(-c2coc3cc(O)cc(O)c3c2=O)cc1 [BIOCHANIN] | 6.1 | 1.2 | 2.6 | -16.5 | – | – | –
16 | O=C(/C=C/c1ccc(O)c(O)c1)c1ccc(O)cc1O [BUTEIN] | 17.5 | -7.3 | 14.8 | -80.8 | – | Toxic | –
17 | COc1cc(OC)c2c(=O)cc(-c3ccccc3)oc2c1 [CHRYSIN DIMETHYL ETHER] | 3.4 | 6.3 | 7.5 | -88.1 | – | Toxic | –
18 | Oc1cc(O)c2c(c1)O[C@H](c1ccc(O)c(O)c1)[C@@H](O)C2 [CIANIDANOL] | 6.4 | 7.9 | -0.5 | 11.9 | – | – | –
19 | O=c1c(-c2ccc(O)cc2)coc2cc(O)ccc12 [DAIDZEIN] | 6.5 | 8.5 | 2 | 13.4 | – | – | –
20 | Oc1cc(O)c2c(c1)O[C@H](c1cc(O)c(O)c(O)c1)[C@H](O)C2 [EPIGALLOCATECHIN] | -3.8 | -10.2 | -9.5 | -19.5 | – | – | –
21 | O=C1C[C@@H](c2ccc(O)c(O)c2)Oc2cc(O)cc(O)c21 [ERIODICTYOL] | -5 | -10.3 | 1.6 | -10.3 | – | – | –

Row | SMILES | Activity (3T3-L1 [1]) [%] | Activity (3T3-L1 [2]) [%] | Activity (3T3-L1 [3]) [%] | Activity (3T3-L1 [4]) [%] | Activity (3T3-L1 [5]) [%] | Activity (3T3-L1 [6]) | Activity (3T3-L1 [7]) [%]
22 | O=c1c(O)c(-c2ccc(O)c(O)c2)oc2cc(O)ccc12 [FISETIN] | -2.4 | -8.8 | 4.1 | -2.7 | – | – | –
23 | O=C1CC(c2ccccc2)Oc2ccccc21 (stereo not given) [FLAVANONE] | 5.1 | 2.5 | -1.9 | 1 | – | – | –
24 | O=c1cc(-c2ccccc2)oc2ccccc12 [FLAVONE] | -6.8 | -5.2 | -2.6 | -10.9 | – | – | –
25 | O=c1c(O)c(-c2ccccc2)oc2ccccc12 [FLAVONOL] | -10 | -17.6 | -12.6 | -31.6 | – | Toxic | –
26 | O=c1c(-c2ccc(O)cc2)coc2cc(O)cc(O)c12 [GENISTEIN] | -4.3 | -17.6 | -4.3 | -19.2 | – | – | –
27 | O=c1c(O)c(-c2ccc(O)c(O)c2)oc2c(O)c(O)cc(O)c12 [GOSSYPETIN] | -2.9 | -6.7 | 17.5 | -9.5 | – | – | –
28 | O=C(/C=C/c1ccc(O)cc1)c1ccc(O)cc1O [ISOLIQUIRITIGENIN] | 4 | -0.7 | 2.7 | -33.7 | – | – | –
29 | O=c1c(O[C@@H]2O[C@H](CO)[C@@H](O)[C@H](O)[C@H]2O)c(-c2ccc(O)c(O)c2)oc2cc(O)cc(O)c12 [ISOQUERCETIN] | 0.1 | -0.2 | -2.2 | -2.4 | – | – | –
30 | O=c1cc(-c2ccc(O)c(O)c2)oc2cc(O)cc(O)c12 [LUTEOLIN] | -6.4 | -14.2 | 3.9 | -41.3 | – | Toxic | –
31 | O=c1c(O)c(-c2cc(O)c(O)c(O)c2)oc2cc(O)cc(O)c12 [MYRICETIN] | 2.7 | -0.7 | 4.3 | 5.6 | – | – | –
32 | COc1ccc(-c2cc(=O)c3c(OC)c(OC)c(OC)c(OC)c3o2)cc1OC [NOBILETIN] | 12.6 | 10.7 | 15.3 | -6.7 | 14.1 | – | –
33 | COc1cc(O)c2c(=O)c(O)c(-c3ccc(OC)c(O)c3)oc2c1 [OMBUINE] | 5.9 | 4.6 | -2.1 | 24.7 | – | – | –
34 | O=c1c(O)c(-c2ccc(O)c(O)c2)oc2cc(O)cc(O)c12 [QUERCETIN] | 5.8 | 3 | 7 | 3.9 | – | – | –
35 | COc1cc(O)c2c(=O)c(OC)c(-c3ccc(OC)c(OC)c3)oc2c1 [RETUSIN] | 11.2 | 21 | 3.8 | 3.8 | – | – | –
36 | COc1cc(O)c2c(=O)c(O)c(-c3ccc(O)c(O)c3)oc2c1 [RHAMNETIN] | 1.9 | 2.4 | 19 | -21.4 | 15.5 | – | –
37 | COc1cc(O)c2c(=O)cc(-c3ccccc3)oc2c1 [TECHTOCHRYSIN] | 10.7 | 10.4 | 7.4 | 17.5 | – | – | –
38 | COc1cc(OC)c2c(=O)cc(-c3ccc(OC)c(OC)c3)oc2c1 [TETRAMETHYLLUTEOLIN] | 3.1 | 7.4 | 2.6 | -15.3 | – | – | –
39 | COc1ccc(-c2cc(=O)c3c(OC)cc(OC)cc3o2)cc1 [TRIMETHYLAPIGENIN] | 14.1 | -17.2 | 16.7 | -83 | 5.6 | Toxic | –
40 | Cc1c(C)c2c(c(C)c1O)CCC(C)(COc1ccc(CC3SC(=O)NC3=O)cc1)O2 (stereo not given) [TROGLITAZONE] | 34.6 | 28.1 | 35.8 | – | 31.9 | – | 166.4
41 | COc1c(O)cc(O)c2c(=O)cc(-c3ccccc3)oc12 [WOGONIN] | 9.6 | 19.2 | 7.8 | 16.6 | – | – | –

From ChEMBL document CHEMBL1772964, “Structural requirements of flavonoids for the adipogenesis of 3T3-L1 cells” (Bioorg Med Chem, 2011)
